Target: T1, KRAS G12C 1-169, his-tagged protein, GDP-loaded (Homo sapiens, UniProt P01116, G12C)
T1 construct: KRAS G12C 1-169, his-tagged protein, GDP-loaded
Assay: Biochemical assay: covalent modification of KRAS G12C measured by mass spectrometry (RapidFire/TOF or Q-Exactive)
Type: binding
Settings: compound concentration and incubation time not given
Method: Test compounds are prepared as 10 mM stock solutions in DMSO (Fisher cat #BP-231-100). KRAS G12C 1-169, his-tagged protein, GDP-loaded is diluted to 2 μM or 0.5 μM in buffer (20 mM Hepes, 150 mM NaCl, 1 mM MgCl2). Compounds are tested for activity as follows:
Compounds are diluted to 50× final test concentration in DMSO in 96-well storage plates. Compound stock solutions are vortexed before use and observed carefully for any sign of precipitation. Dilutions are as follow: • For 100 μM final compound concentration, compounds are diluted to 5000 μM (5 μL 10 mM compound stock+5 μL DMSO and mixed well by pipetting. • For 30 μM final compound concentration, compounds are diluted to 1500 μM (3 μI, 10 mM compound stock+17 μL DMSO) and mixed well by pipetting. • For 10 μM final compound concentration, compounds are diluted to 500 μM (2 μL 10 mM compound stock+38 μL DMSO) and mixed well by pipetting. 49 μL of the stock protein solution is added to each well of a 96-well PCR plate (Fisher cat #1423027). 1 μl of the diluted 50× compounds are added to appropriate wells in the PCR plate using 12-channel pipettor. Reactions are mixed carefully and thoroughly by pipetting up/down with a 200 μL multi-channel pipettor. […] The plate is then resealed with aluminum seal and stored on dry ice until analyzed as described below.
The above described assays are analyzed by mass spectrometry according to one of the following two procedures: […]
After another 30 minute equilibration time, a blank batch (i.e., buffer) is run to ensure equipment is operating properly. […] The method is then run and masses of each individual well recorded. […]
The masses and peak intensities of KRAS G12C protein species are measured using a Dionex RSLCnano system (Thermo Scientific) connected to a Q Exactive Plus mass spectrometer (Thermo Scientific). […]
The mass spectrometer is operated in profile mode at a resolution of 17500, 5 microscans, using 50 msec max injection time and an AGC target of 1×10^6, and a full mass range from 800-1850 m/z is recorded. […]

T1 sequence (P01116 1-169 isoform P01116-2 G12C): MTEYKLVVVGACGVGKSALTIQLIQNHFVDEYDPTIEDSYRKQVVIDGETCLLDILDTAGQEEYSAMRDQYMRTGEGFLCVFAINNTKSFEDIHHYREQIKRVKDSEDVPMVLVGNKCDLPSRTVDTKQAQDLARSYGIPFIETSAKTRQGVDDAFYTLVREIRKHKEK

Structure (SMILES) | Binding %
C=CC(=O)N1CC(n2cnc3c(Nc4cc(O)cc5ccccc45)cncc3c2=O)C1 [Compound 56, 3-(1-acryloylazetidin-3-yl)-8-((3-hydroxynaphthalen-1-yl)amino)pyrido[4,3-d]pyrimidin-4(3H)-one] | + (+ indicates binding activity up to 5%)
C=CC(=O)N1CC(n2cnc3c(Nc4c(C)ccc5cn[nH]c45)cncc3c2=O)C1 [Compound 55, 3-(1-acryloylazetidin-3-yl)-8-((6-methyl-1H-indazol-7-yl)amino)pyrido[4,3-d]pyrimidin-4(3H)-one] | + (+ indicates binding activity up to 5%)
C=CC(=O)N1CC(n2cc(C)c3cncc(Nc4c(C)ccc5[nH]ncc45)c3c2=O)C1 [Compound 57, 2-(1-acryloylazetidin-3-yl)-4-methyl-8-((5-methyl-1H-indazol-4-yl)amino)-2,6-naphthyridin-1(2H)-one] | + (+ indicates binding activity up to 5%)

Reference: US11059819B2, “Fused hetero-hetero bicyclic compounds and methods of use thereof” (Araxes Pharma LLC, priority 2017, dated 2021)
